Laboratory results: patent EP0192976A1, “Compounds having antihyperlipemic activity, processes for the preparation thereof and pharmaceutical compositions containing them” (BOEHRINGER BIOCHEMIA ROBIN S.p.A., priority 1985, dated 1986)
Read-outs that look alike come from different tables or passages of the source.

Assays:
[1] = tested on: thrombosis induced by the administration of arachidonic acid, as well as colla- gene and adrenalin; assay: Mouse antithrombotic assay (di Minno and Silver); format: in vivo; details: orally administered at doses from 100 to 250 mg/kg; thrombosis induced by arachidonic acid, and by collagen and adrenalin
Source text: Exper. Therap. 225, 57 (1983).

[2] = tested on: fructose induced hypertriglyceridemia; assay: Fructose induced hypertriglyceridemia; format: in vivo, Male Sprague-Dawley rats; details: fructose and Triton induced hypertriglyceridemias (test not given)
Experimental: (§1) The single compounds were administered orally at single equimolecular gradually increasing doses, in order to comparatively evaluate their hypocholesterolemic and hypotriglyceridemic activities. Normolipidemic, and hypercholesterolemic and hypertriglyceridemic rats, following to administration of diets respectively enriched in cholesterol and cholic acid (Nath diet) or 79.5% fructose, were used.
(§2) Male Sprague-Dawley rats of 180-200 g body weight were used. The compounds under test were administered as 1% tylose suspension, by means of gastric probe, 10 animals per dose in comparison with controls, treated with the sole vehicle.
(§3) In the serum the following values were determined: • a) total cholesterol, by enzymatic method; • b) HDL cholesterol, by enzymatic method, after precipitation of the other lipoproteins by addition of phospho- tungstic acid; • c) triglycerides by enzymatic method, i.e. by means of enzymatic hydrolysis and dosage of the formed glycerol.
(§4) The dosage of the liver triglycerides has been carried out by enzymatic method on the evaporated liver extract with chloroform:methanol 2:1.
(§5) The results were evaluated and expressed as % variation with respect to the control groups.
The hypotriglyceridemyzing activity of the compounds of the invention, as already mentioned, was evaluated in fructose and Triton induced hypertriglyceridemias, in comparison with the following standard: 1,10-bisL2-(hydroxyethyl)thio]decane (3) and its nicotinate (4) and nicoti- noyloxymethylcarbonyloxy ester (5).
All the compounds were administered 'at equimolecular gradual dosages.

[3] = tested on: Adrenalin induced lypolysis; assay: Antilipolytic activity, adrenalin induced lipolysis (free fatty acids); format: in vivo; details: 1·10^-3 mol/kg oral
Experimental: (§6) The compounds were administered orally. […] The results are expressed as µEq/1 of free fatty acids.
10 Animals per group - Feeded and housed for one weed, then administered orally and stimulated with adrenalin 1 mg/kg i.p., respectively 30 and 60 min. before killing.

ear marginal veins [4] = details: guinea pig, in vivo
Source text: (§7) Such a side-effect may be experimented on male albino Guinea pigs, weighing 300-400 g, normally feeded and housed in silent room, by observing the vasodilation of ear marginal veins, after administration of the test compounds.

[5] = tested on: Fasting induced lipolysis; assay: Antilipolytic activity, fasting induced lipolysis (free fatty acids); format: in vivo; details: fasted for 24 hours
Experimental: as §6
10 Animals per group - Normally feeded for 6 days, then fasted for 24 hours and orally administered with the test compounds.

[6] = tested on: hypercholesterolemic animals (Nath diet); assay: Hypocholesterolemic/hypotriglyceridemic activity in hypercholesterolemic rats (Nath diet); format: in vivo, Male Sprague-Dawley rats; details: oral
Experimental: as §1, §2
Four dose levels: 1, 2, 4, 8 10^-3 mol/kg were used for each compound under test. The body growth and liver weight were evaluated.
as §3, §4, §5

Normolipolysis = assay: Antilipolytic activity, normolipolysis (free fatty acids); format: in vivo; details: for antilipolytic activity: oral, under normal feeding conditions and in lipolysis induced by fasting or adrenalin
Experimental: as §6
10 Animals per group - Normally feeded for 7 days, then administered with the test compounds.

ear marginal veins [7] = assay: Vasodilation of ear marginal veins (flushing side-effect); details: Guinea pigs, 1·10^-3 mol/kg
Source text: as §7

[8] = 30', adrenalin 1 mg/kg i.p. 30 min before killing
[9] = 60', adrenalin 1 mg/kg i.p. 60 min before killing
[10] = 2 hours after 1·10^-3 mol/kg oral single dose
[11] = 4 hours after 1·10^-3 mol/kg oral single dose
[12] = 8 hours after 1·10^-3 mol/kg oral single dose
[13] = 2 hours after 1·10^-3 mol/kg oral single dose, normally fed
[14] = 4 hours after 1·10^-3 mol/kg oral single dose, normally fed
[15] = 8 hours after 1·10^-3 mol/kg oral single dose, normally fed
[16] = Basal, normally fed 7 days, group later given 1·10^-3 mol/kg oral single dose
[17] = 4·10^-3 mol/kg, % variation versus controls

## O=C(NC(Cc1ccccc1)C(=O)OCCSCCCCCCCCCCSCCOC(=O)C(Cc1ccccc1)NC(=O)c1cccnc1)c1cccnc1 (centres unmarked) [1,10-bis[2-(nicotinoylphenylalanyl)ethylthio]decane]
[1]
  protection from thrombosis: protect the mouse from thrombosis

## CC(NC(=O)c1cccnc1)C(=O)OCCSCCCCCCCCCCSCCOC(=O)C(C)NC(=O)c1cccnc1 (centres unmarked) [Example 7, 1,10-bis[2-(nicotinoyialanylethyl)thio]decane]
[1]
  protection from thrombosis: protect the mouse from thrombosis

## OCCSCCCCCCCCCCSCCO [Compound 3, 1,10-bis[2-(hydroxyethyl)thio]decane]
[2]
  triglyceride hepatic concentration, increases: 40-50%

## O=C(OCCSCCCCCCCCCCSCCOC(=O)c1cccnc1)c1cccnc1 [Compound 4]
[2]
  triglyceride hepatic concentration, increases: 40-50%
[3]; [8]
  FFA: 295 μEq/l
[3]; [9]
  FFA: 625 μEq/l
Ear marginal veins [4]
  Vasodilating effect: Beginning: 10'
  Vasodilating effect: Beginning of disappearance: 48'
  Vasodilating effect: Maximal effect: 25'
[5]; [10]
  free fatty acids: 250 µEq/1
[5]; [11]
  free fatty acids: 240 µEq/1
[5]; [12]
  free fatty acids: 970 µEq/1
[6]; 2·10^-3 mol/kg, versus controls
  preliminar increase of the total cholesterol: 10%
[6]; all the assayed doses, the decrease lessened with increasing dose
  HDL concentration: marked decrease
[6]; all the tested doses, tendency to decrease with increasing dose
  triglyceride hematic concentration: always higher than that in the control animals
[6]; doses above 2·10^-3 mol/kg, did not vary increasing the dose
  decrease of the total cholesterol versus controls: 50%
[6]; over the tested doses
  liver weight: gradual increase
Normolipolysis; [13]
  free fatty acids: 120 µEq/1
Normolipolysis; [14]
  free fatty acids: 155 µEq/1
Normolipolysis; [15]
  free fatty acids: 450 µEq/1
Normolipolysis; [16]
  free fatty acids: 230 µEq/1

## O=C(CNC(=O)c1cccnc1)OCCSCCCCCCCCCCSCCOC(=O)CNC(=O)c1cccnc1 [Compound 1]
[2]
  triglyceride hepatic concentration, percent variations: -10 to +10%
[3]; [8]
  FFA: 450 μEq/l
[3]; [9]
  FFA: 400 μEq/l
Ear marginal veins [4]
  Vasodilating effect: Beginning: ==
  Vasodilating effect: Beginning of disappearance: ==
  Vasodilating effect: Maximal effect: ==
[5]; [10]
  free fatty acids: 480 µEq/1
[5]; [11]
  free fatty acids: 430 µEq/1
[5]; [12]
  free fatty acids: 400 µEq/1
[6]; 4·10^-3 mol/kg
  liver weight: no substantial changes
[6]; [17]
  decrease in hematic triglycerides: 4%
  decrease in hepatic triglycerides: 48%
  decrease of total plasmatic cholesterol: 37%
  increase in HDL cholesterol: 7%
[1]
  protection from thrombosis: protect the mouse from thrombosis
Normolipolysis; [13]
  free fatty acids: 200 µEq/1
Normolipolysis; [14]
  free fatty acids: 225 µEq/1
Normolipolysis; [15]
  free fatty acids: 270 µEq/1
Normolipolysis; [16]
  free fatty acids: 230 µEq/1

## O=C(COC(=O)c1cccnc1)OCCSCCCCCCCCCCSCCOC(=O)COC(=O)c1cccnc1 [Compound 5, 1,10-bis[2-(nicotino-yloxymethylcarbonyloxy)ethylthio]decane]
[2]
  triglyceride hepatic concentration, percent variations: -10 to +10%
[3]; [8]
  FFA: 270 μEq/l
[3]; [9]
  FFA: 610 μEq/l
Ear marginal veins [4]
  Vasodilating effect: Beginning: 13'
  Vasodilating effect: Beginning of disappearance: 51'
  Vasodilating effect: Maximal effect: 30'
[5]; [10]
  free fatty acids: 207 µEq/1
[5]; [11]
  free fatty acids: 228 µEq/1
[5]; [12]
  free fatty acids: 744 µEq/1
[6]; 4·10^-3 mol/kg
  concentration of hepatic triglycerides: increase
[6]; [17]
  decrease in hematic HDL cholesterol: 6%
  decrease in hematic triglycerides: 34%
  decrease of total plasmatic cholesterol: 30%
Normolipolysis; [13]
  free fatty acids: 120 µEq/1
Normolipolysis; [14]
  free fatty acids: 170 µEq/1
Normolipolysis; [15]
  free fatty acids: 260 µEq/1
Normolipolysis; [16]
  free fatty acids: 240 µEq/1
Normolipolysis
  antilipolytic activity: proved to have antilipolytic activity

## O=C(CNC(=O)c1cncc(Br)c1)OCCSCCCCCCCCCCSCCOC(=O)CNC(=O)c1cncc(Br)c1 [Example 5, 1,10-Bis[2-(5-bromn-nicotinoylglicyl)ethyl-thio]decane]
[1]
  protection from thrombosis: protect the mouse from thrombosis

## CCC(C)C(NC(=O)c1cccnc1)C(=O)OCCSCCCCCCCCCCSCCOC(=O)C(NC(=O)c1cccnc1)C(C)CC (centres unmarked)
[1]
  protection from thrombosis: protect the mouse from thrombosis

## O=C(O)c1cccnc1 [Compound 2, nicotinic acid]
[3]; [8]
  FFA: 340 μEq/l
[3]; [9]
  FFA: 650 μEq/l
[5]; [10]
  free fatty acids: 180 µEq/1
[5]; [11]
  free fatty acids: 190 µEq/1
[5]; [12]
  free fatty acids: 950 µEq/1
Ear marginal veins [7]
  Vasodilating effect: Beginning: 3'
  Vasodilating effect: Beginning of disappearance: 20'
  Vasodilating effect: Maximal effect: 6'
Normolipolysis; [13]
  free fatty acids: 110 µEq/1
Normolipolysis; [14]
  free fatty acids: 160 µEq/1
Normolipolysis; [15]
  free fatty acids: 560 µEq/1
Normolipolysis; [16]
  free fatty acids: 260 µEq/1
Normolipolysis
  antilipolytic activity: proved to have antilipolytic activity

## Cc1cnc(C(=O)NCC(=O)OCCSCCCCCCCCCCSCCOC(=O)CNC(=O)c2cnc(C)cn2)cn1 [1,10-bis[2-(5-methylpyrazinoylglycyl)ethylthio]decane]
[1]
  protection from thrombosis: protect the mouse from thrombosis
